Assay [1] has as its target T1, DNA topoisomerase 1 (Homo sapiens) (UniProt P11387).
T1 sequence (whole entry): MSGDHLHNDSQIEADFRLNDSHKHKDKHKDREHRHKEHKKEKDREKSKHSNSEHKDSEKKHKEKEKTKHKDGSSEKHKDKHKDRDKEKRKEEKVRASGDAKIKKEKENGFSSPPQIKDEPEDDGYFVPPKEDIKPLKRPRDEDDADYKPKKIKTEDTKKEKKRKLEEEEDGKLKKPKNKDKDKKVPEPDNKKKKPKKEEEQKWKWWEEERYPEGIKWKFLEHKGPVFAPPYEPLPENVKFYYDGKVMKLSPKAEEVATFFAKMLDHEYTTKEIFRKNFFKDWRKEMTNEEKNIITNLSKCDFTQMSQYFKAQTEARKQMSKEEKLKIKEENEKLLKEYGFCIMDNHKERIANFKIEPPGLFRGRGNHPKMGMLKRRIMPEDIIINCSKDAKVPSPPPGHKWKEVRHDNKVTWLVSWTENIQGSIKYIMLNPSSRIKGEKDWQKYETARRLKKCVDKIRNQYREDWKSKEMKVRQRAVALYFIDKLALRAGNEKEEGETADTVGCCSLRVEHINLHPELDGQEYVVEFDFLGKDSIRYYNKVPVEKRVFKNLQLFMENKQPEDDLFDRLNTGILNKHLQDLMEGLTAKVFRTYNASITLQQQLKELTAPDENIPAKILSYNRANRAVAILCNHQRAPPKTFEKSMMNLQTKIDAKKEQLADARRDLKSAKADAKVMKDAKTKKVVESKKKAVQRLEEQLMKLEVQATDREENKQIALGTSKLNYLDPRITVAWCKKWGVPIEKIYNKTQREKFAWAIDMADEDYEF
Description: Inhibition of human topoisomerase 1-mediated relaxation of supercoiled plasmid DNA assessed as formation of linear DNA at 100 uM by agarose gel electrophoresis.

Another assay relates to KB. Briefly: Cytotoxicity against human KB cells by MTT assay. It is filed as functional, cell-based. Background: Tetrazolium assays rely on reduction of a dye to a coloured formazan, in cell work by metabolically active cells.
The test system of another assay is A549. Description: Cytotoxicity against human A549 cells by MTT assay. It is filed as functional, cell-based.
For assay [2], the target named is DNA topoisomerase 2-alpha (Homo sapiens) (UniProt P11388). Description: Inhibition of human topoisomerase 2-mediated relaxation of supercoiled plasmid DNA assessed as formation of linear DNA at 100 uM by agarose gel electrophoresis.
Sequence of DNA topoisomerase 2-alpha (Homo sapiens) (P11388 whole entry): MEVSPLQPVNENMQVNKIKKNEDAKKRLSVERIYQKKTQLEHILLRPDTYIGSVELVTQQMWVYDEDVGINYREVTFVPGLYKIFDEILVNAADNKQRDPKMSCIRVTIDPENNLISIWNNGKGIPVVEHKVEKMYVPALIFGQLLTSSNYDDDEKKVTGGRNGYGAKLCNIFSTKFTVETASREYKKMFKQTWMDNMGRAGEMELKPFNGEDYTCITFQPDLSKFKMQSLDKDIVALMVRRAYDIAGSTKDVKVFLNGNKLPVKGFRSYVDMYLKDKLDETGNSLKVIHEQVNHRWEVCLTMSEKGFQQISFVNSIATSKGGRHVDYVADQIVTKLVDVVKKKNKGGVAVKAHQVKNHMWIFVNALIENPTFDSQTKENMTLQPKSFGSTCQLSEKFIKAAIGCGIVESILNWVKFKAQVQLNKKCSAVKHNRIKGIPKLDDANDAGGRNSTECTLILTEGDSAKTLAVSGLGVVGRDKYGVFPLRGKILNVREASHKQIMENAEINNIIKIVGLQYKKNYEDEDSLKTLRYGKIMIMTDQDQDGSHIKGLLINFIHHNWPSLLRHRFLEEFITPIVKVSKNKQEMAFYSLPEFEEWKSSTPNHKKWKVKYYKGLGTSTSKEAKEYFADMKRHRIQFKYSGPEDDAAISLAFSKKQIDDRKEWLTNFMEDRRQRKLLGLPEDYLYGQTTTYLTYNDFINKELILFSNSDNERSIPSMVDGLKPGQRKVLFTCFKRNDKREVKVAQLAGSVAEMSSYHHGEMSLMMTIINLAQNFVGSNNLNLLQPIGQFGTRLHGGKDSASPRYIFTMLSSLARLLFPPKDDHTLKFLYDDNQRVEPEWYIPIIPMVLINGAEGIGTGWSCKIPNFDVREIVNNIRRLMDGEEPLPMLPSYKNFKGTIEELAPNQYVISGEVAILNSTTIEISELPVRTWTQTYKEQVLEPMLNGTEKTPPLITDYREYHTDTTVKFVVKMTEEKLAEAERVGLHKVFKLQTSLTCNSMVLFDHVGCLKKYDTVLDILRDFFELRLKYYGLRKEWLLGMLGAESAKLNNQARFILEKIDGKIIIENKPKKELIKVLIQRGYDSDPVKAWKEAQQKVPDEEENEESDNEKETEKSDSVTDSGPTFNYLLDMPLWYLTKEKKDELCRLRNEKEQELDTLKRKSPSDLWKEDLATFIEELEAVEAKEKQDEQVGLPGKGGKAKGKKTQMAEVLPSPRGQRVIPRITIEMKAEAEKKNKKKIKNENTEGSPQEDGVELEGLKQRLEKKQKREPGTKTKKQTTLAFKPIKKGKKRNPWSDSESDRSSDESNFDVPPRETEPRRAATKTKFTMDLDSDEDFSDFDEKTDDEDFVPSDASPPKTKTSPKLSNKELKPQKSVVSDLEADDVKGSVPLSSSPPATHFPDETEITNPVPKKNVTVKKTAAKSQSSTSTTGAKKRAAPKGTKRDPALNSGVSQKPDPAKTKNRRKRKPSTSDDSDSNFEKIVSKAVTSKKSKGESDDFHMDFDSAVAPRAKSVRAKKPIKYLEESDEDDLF
For a further assay, the system named is HCT-116. Description: Cytotoxicity against human HCT116 cells by MTT assay. It is filed as functional, cell-based.
The subject of a further assay is Bel-7402. Description: Cytotoxicity against human Bel7402 cells by MTT assay. It is filed as functional, cell-based.
The subject of another assay is MDA-MB-231. Briefly: Cytotoxicity against human MDA-MB-231 cells by MTT assay. It is filed as functional, cell-based.

Molecules are shown by their SMILES. Activity calls are given as the source filed them. The rule behind the calls is not given here. Some results are limits rather than exact numbers.

A word on the IC50: it is the concentration needed to halve the response being measured.

With `CCn1cc(C(=O)Nc2cccc([N+](=O)[O-])c2)c(=O)c2cc(F)c(N3CCNC(C)C3)c(F)c21` (stereo not drawn), the inhibition entry in assay [1] is “inactive”. The IC50 with KB was 1.7 µM; in the assay on A549, 3.24 µM; with HCT-116, 2.71 µM; with Bel-7402, 1 µM; in the assay on MDA-MB-231, 3.25 µM. The inhibition entry in assay [2] was “Active”.

`COc1cc([C@@H]2c3cc4c(cc3[C@@H](O[C@@H]3O[C@@H]5CO[C@@H](C)O[C@H]5[C@H](O)[C@H]3O)[C@H]3COC(=O)[C@H]23)OCO4)cc(OC)c1O`: the inhibition result in assay [2] was “Active”.

With `CCn1cc(C(=O)Nc2cc([N+](=O)[O-])ccc2F)c(=O)c2cc(F)c(N3CCNC(C)C3)c(F)c21` (stereo not drawn), in assay [1], the inhibition result was “inactive”. Besides, the IC50 in the assay on KB came out at 3.2 µM; in the assay with A549 it was 1.7 µM; in the assay on HCT-116, 2.6 µM; with Bel-7402 it was 2.9 µM; in the assay on MDA-MB-231, 6.9 µM. The inhibition result in assay [2] was “Active”.

Turning to `CCn1cc(C(=O)Nc2ccc(C(C)=O)cc2)c(=O)c2cc(F)c(N3CCNC(C)C3)c(F)c21` (stereo not drawn), the inhibition entry in assay [1] is “inactive”. In addition, the IC50 in the assay on KB was 42.6 µM; in the assay with A549, 4 µM; in the assay with HCT-116, 4.6 µM; in the assay with Bel-7402, greater than 50 µM; in the assay on MDA-MB-231, 5.6 µM. Further, the inhibition result in assay [2] is “Active”.

In the case of `CCn1cc(C(=O)Nc2ccccc2O)c(=O)c2cc(F)c(N3CCNC(C)C3)c(F)c21` (stereo not drawn), the inhibition entry in assay [1] is “inactive”. Besides, the 50% inhibitory concentration (IC50) was 5.05 µM in the assay with KB; 24.8 µM in the assay on A549; 5.37 µM in the assay on HCT-116; greater than 50 µM in the assay on Bel-7402; 7.43 µM in the assay on MDA-MB-231.

Regarding `CCn1cc(C(=O)Nc2ccccc2N)c(=O)c2cc(F)c(N3CCNC(C)C3)c(F)c21` (stereo not drawn), in assay [1], the inhibition entry is “inactive”. In addition, the 50% inhibitory concentration (IC50) in the assay on KB was 2.8 µM; in the assay with A549, 5.9 µM; with HCT-116 it was 2.7 µM; in the assay on Bel-7402, 4.8 µM; in the assay on MDA-MB-231, 9.5 µM.

As for `CCn1cc(C(=O)Nc2ccc(Cl)cn2)c(=O)c2cc(F)c(N3CCNC(C)C3)c(F)c21` (stereo not drawn), in assay [1], the inhibition entry is “inactive”. In addition, the IC50 is 1.6 µM with KB; 3.3 µM in the assay on A549; 3.3 µM in the assay on HCT-116; 4.9 µM with Bel-7402; 4.8 µM with MDA-MB-231. Also, the inhibition entry in assay [2] was “Active”.

For `CCn1cc(-c2nc3ccc([N+](=O)[O-])cc3o2)c(=O)c2cc(F)c(N3CCNC(C)C3)c(F)c21` (stereo not drawn), the inhibition entry in assay [1] was “inactive”. The IC50 amounted to 0.9 µM in the assay on KB; 0.9 µM with A549; 1.1 µM in the assay on HCT-116; 1.6 µM in the assay with Bel-7402; 2 µM with MDA-MB-231.

In the case of `CCn1cc(C(=O)Nc2ccc(OC(F)(F)F)cc2)c(=O)c2cc(F)c(N3CCNC(C)C3)c(F)c21` (stereo not drawn), in assay [1], the inhibition entry is “inactive”. Moreover, the IC50 in the assay with KB was 1.4 µM; in the assay with A549, 1.32 µM; in the assay on HCT-116 it was 2.35 µM; in the assay on Bel-7402, 2 µM; in the assay with MDA-MB-231, 0.98 µM. In addition, in assay [2], the inhibition result was “Active”.

`CC[C@@]1(O)C(=O)OCc2c1cc1n(c2=O)Cc2cc3cc(O)ccc3nc2-1` [HYDROXYCAMPTOTHECIN]: the IC50 in the assay on A549 came to 0.07 µM; in the assay on HCT-116 it was 0.3 µM; in the assay on MDA-MB-231, 0.06 µM.

As to `CCn1cc(C(=O)Nc2ccc(C)c([N+](=O)[O-])c2)c(=O)c2cc(F)c(N3CCNC(C)C3)c(F)c21` (stereo not drawn), the inhibition entry in assay [1] is “inactive”. Besides, the IC50 stood at 3.9 µM with KB; 3.7 µM in the assay on A549; 11.8 µM in the assay on HCT-116; 29.1 µM in the assay on Bel-7402; 4.2 µM in the assay with MDA-MB-231. The inhibition result in assay [2] is “Active”.

In the case of `CCn1cc(C(=O)NCc2ccc(OC)cc2)c(=O)c2cc(F)c(N3CCNC(C)C3)c(F)c21` (stereo not drawn), the inhibition result in assay [1] was “inactive”. The concentration for half-maximal inhibition (IC50) in the assay on KB was found to be 1.63 µM; with A549, 7 µM; with HCT-116 it was 1.4 µM; in the assay on Bel-7402 it was 10.3 µM; in the assay with MDA-MB-231 it was 25.3 µM.

In the case of `CCn1cc(C(=O)Nc2nccs2)c(=O)c2cc(F)c(N3CCNC(C)C3)c(F)c21` (stereo not drawn), the inhibition entry in assay [1] is “inactive”. The IC50 in the assay on KB is 43.5 µM; with A549, 20.2 µM; in the assay on HCT-116, 8.66 µM; with Bel-7402, greater than 50 µM; in the assay with MDA-MB-231, greater than 50 µM.

`CCn1cc(C(=O)Nc2ccccc2)c(=O)c2cc(F)c(N3CCNC(C)C3)c(F)c21` (stereo not drawn): the inhibition result in assay [1] is “inactive”. In addition, the concentration for half-maximal inhibition (IC50) with KB amounted to 4.4 µM; with A549 it was 39.3 µM; in the assay on HCT-116 it was 12.7 µM; with Bel-7402, 6 µM; in the assay on MDA-MB-231, 7.4 µM.

Turning to `CCn1cc(C(=O)Nc2ccc(OC)cc2)c(=O)c2cc(F)c(N3CCNC(C)C3)c(F)c21` (stereo not drawn), the inhibition result in assay [1] is “inactive”. For the same compound, the IC50 with KB was determined as 2.6 µM; in the assay on A549, 9.7 µM; with HCT-116, 3.8 µM; in the assay with Bel-7402, 5.4 µM; in the assay on MDA-MB-231, 7.3 µM.
